Test results published in ChEMBL document CHEMBL6074638, “Stability studies of β-Amino- and β-Hydroxy difluoromethyl ketones in rat serum and rat liver microsomes” (Bioorg Med Chem Lett, 2024).

Tests used:
[1] = Stability in rat serum assessed as parent compound remaining measured after 30 mins by LC-MS analysis; format: ADME, cell-free; settings: read-out: Stability
[2] = Metabolic stability in rat liver microsomes assessed as parent compound remaining measured after 30 mins in presence of NADPH by LC-MS/MS analysis; format: ADME, Microsome; settings: read-out: Stability

remaining at 0.5 h [1] | remaining at 0.5 h [2] | SMILES
89% | 83% | CC(C)(C)OC(=O)NC(c1ccc(Cl)cc1)C(F)(F)C(=O)c1ccc2c(c1)OCO2 (configuration not stated)
85% | 3.5% | O=C(c1ccc2ccccc2c1)C(F)(F)C(NCc1ccccc1)c1ccccc1 (configuration not stated)
– | < 1% | CC(C)(C)OC(=O)NC(c1cccc(F)c1)C(F)(F)C(=O)c1ccc(Cl)cc1 (configuration not stated)
96.5% | < 1% | O=C(c1ccc2ccccc2c1)C(F)(F)C(O)c1ccc(F)cc1 (configuration not stated)
35.5% | 55% | CC(C)(C)OC(=O)NC(c1cccc(Br)c1)C(F)(F)C(=O)c1ccc2ccccc2c1 (configuration not stated)
74% | 2% | Cc1ccc(NC(c2ccc(F)cc2)C(F)(F)C(=O)c2ccc3ccccc3c2)cc1C (configuration not stated)
48.5% | 27% | CC(C)(C)OC(=O)NC(c1ccc(C(F)(F)F)cc1)C(F)(F)C(=O)c1ccc2ccccc2c1 (configuration not stated)
100% | 2.5% | CC(C)(C)OC(=O)NC(c1ccccc1)C(F)(F)C(=O)c1ccc2c(c1)OCO2 (configuration not stated)
71.5% | 4% | CC(C)(C)OC(=O)NC(c1ccccc1)C(F)(F)C(=O)c1ccc2ccccc2c1 (configuration not stated)
61% | 10% | COc1ccc(C(NC(=O)OC(C)(C)C)C(F)(F)C(=O)c2ccc3ccccc3c2)cc1 (configuration not stated)
100% | < 1% | CC(C)(C)OC(=O)NC(c1cccc(Br)c1)C(F)(F)C(=O)c1ccc(Cl)cc1 (configuration not stated)
100% | 7.5% | COc1ccc(NC(c2ccc(OC)cc2)C(F)(F)C(=O)c2ccc3ccccc3c2)cc1 (configuration not stated)
86.5% | < 1% | CC(=O)c1ccc(C(O)C(F)(F)C(=O)c2ccc3ccccc3c2)cc1 (configuration not stated)
80.5% | < 1% | CC(C)(C)OC(=O)NC(c1ccc(F)cc1)C(F)(F)C(=O)c1ccc(Cl)cc1 (configuration not stated)
90.5% | 75.5% | O=C(c1ccc2ccccc2c1)C(F)(F)C(O)/C=C/c1ccccc1 (configuration not stated)
73% | 70.5% | CC(=O)c1ccc(C(O)C(F)(F)C(=O)C23CC4CC(CC(C4)C2)C3)cc1 (configuration not stated)
97% | 98.5% | O=C(c1ccc(Cl)cc1)C(F)(F)C(O)c1ccccc1 (configuration not stated)
66.5% | 85.5% | COc1ccc(C(O)C(F)(F)C(=O)C23CC4CC(CC(C4)C2)C3)cc1 (configuration not stated)
85% | 1% | O=C(c1ccc2ccccc2c1)C(F)(F)C(Nc1ccccc1)c1ccccc1 (configuration not stated)
97% | 12.5% | O=C(c1cccc(SCc2ccccc2)c1)C(F)(F)C(NCc1ccccc1)c1ccccc1 (configuration not stated)

remaining at 0.5 h [1] | remaining at 0.5 h [2] | SMILES
< 1% | 7.5% | CC(C)(C)OC(=O)NC(c1ccc(Cl)cc1)C(F)(F)C(=O)c1ccc2ccccc2c1 (configuration not stated)
48.5% | < 1% | O=C(C12CC3CC(CC(C3)C1)C2)C(F)(F)C(O)c1ccc(Cl)cc1 (configuration not stated)
100% | < 1% | CC(C)(C)OC(=O)NC(c1ccc(F)cc1)C(F)(F)C(=O)c1ccc2ccccc2c1 (configuration not stated)
83.5% | 53% | O=C(c1ccc2c(c1)OCO2)C(F)(F)C(O)c1ccccc1 (configuration not stated)
85% | 11.5% | O=C(c1ccc2c(c1)OCO2)C(F)(F)C(O)c1ccc(Cl)cc1 (configuration not stated)
83% | 3% | CC(C)(C)OC(=O)NC(c1ccc(Cl)cc1)C(F)(F)C(=O)c1ccc(Cl)cc1 (configuration not stated)
99% | < 1% | CC(C)(C)OC(=O)NC(c1ccccc1)C(F)(F)C(=O)c1ccc(Cl)cc1 (configuration not stated)
97.5% | 7.5% | COc1cc2c(cc1OC)C(C(F)(F)C(=O)c1ccc(C(F)(F)F)cc1)NCC2 (configuration not stated)
100% | 41.5% | O=C(c1ccc2ccccc2c1)C(F)(F)CO
82% | < 1% | O=C(c1ccc2ccccc2c1)C(F)(F)C(O)c1cccc(F)c1 (configuration not stated)
98% | 5% | CC(C)(C)OC(=O)NC(c1cccc(F)c1)C(F)(F)C(=O)c1ccc2ccccc2c1 (configuration not stated)
< 1% | 63% | CCC/C=C/C(O)C(F)(F)C(=O)C12CC3CC(CC(C3)C1)C2 (configuration not stated)
100% | 2% | C/C=C/C=C/C(NCc1ccccc1)C(F)(F)C(=O)c1ccc2ccccc2c1 (configuration not stated)
100% | < 1% | COc1ccc(C(Nc2ccccc2)C(F)(F)C(=O)c2ccc3ccccc3c2)cc1 (configuration not stated)
98% | < 1% | CC(C)(C)NC(c1ccccc1)C(F)(F)C(=O)c1ccc2ccccc2c1 (configuration not stated)
76% | 2% | COc1ccc(C(Nc2ccc(F)cc2)C(F)(F)C(=O)c2ccc3ccccc3c2)cc1 (configuration not stated)
87% | 2% | O=C(c1ccc(Cl)cc1)C(F)(F)C(NCc1ccccc1)c1ccccc1 (configuration not stated)
88.5% | < 1% | COc1ccc(C(O)C(F)(F)C(=O)c2ccc3ccccc3c2)cc1 (configuration not stated)
100% | < 1% | O=C(C12CC3CC(CC(C3)C1)C2)C(F)(F)C(NCc1ccccc1)c1ccccc1 (configuration not stated)
